Legend:
[1] = tested on: MDA-231 cells in type I collagen gel; assay: In vitro collagen gel destruction assay; format: cell-based; conditions: empty vector MDA-231 cells, 36 hours
Experimental: In vitro Collagen Gel Destruction Assay. Collagen preparations were carried out on ice to prevent premature jelling. A solution of purified type I bovine collagen (Cohesion Technologies, Palo Alto, Calif.) was neutralized with a sterile 10× phosphate-buffered saline (pH 7.4), and 0.1 M NaOH. The solution of neutralized collagen (2 mg/mL) was mixed with an equivalent volume of cells suspended in serum free DMEM to yield a final concentration of 2×10^5 cells/mL in 1 mg/mL fibrillar collagen, and 1 mL of the collagen/cell mixture was added to each well of a six-well plate. After approximately 1 hour, the collagen jelled, and 1 mL of serum-free media was added on top of the gel. For some experiments, 25 μM ILOMASTAT® (CHEMICON®, Temecula, Calif.), 50 U/mL aprotinin (Sigma, St. Louis, Mo.), 1 μg/mL neutralizing MMP-1 antibody (MMP-1 ab-5; ONCOGENE™ Research Products, San Diego, Calif.), 1 μg/mL monoclonal FLAG® antibody (Sigma, St. Louis, Mo.), or 1% DMSO were added to the collagen before it jelled. After 36 hours of incubation at 37° C. the medium was removed from the top of collagen gels and weighed. The weight of media added at the start of the 37° C. incubation (1 gram) was subtracted from the total media weights to reveal the amount of media liberated by collagen gel destruction.
An in vitro collagen destruction assay was developed to determine whether the MMP-1 levels in MDA-231 cells with the empty vector were functionally capable of degrading a collagen matrix, and whether the shRNA-mediated reduction in MMP-1 was sufficient to change the invasive behavior of the cells. MDA-231 cells harboring either the empty vector or the MMP-1 shRNA were embedded in a solution of type I collagen (1 mL). The collagen was allowed to solidify at 37° C., and 1 mL of serum-free medium was layered on top of each gel. After 36 hours at 37° C., the medium was removed from each well and photographs were taken. No collagen was visible in wells containing MDA-231 cells with the empty vector. […] The medium removed from each well was weighed to quantitate the amount of medium liberated as the gel was destroyed. After 36 hours, approximately 1 mL (0.8±0.06 grams) of medium was liberated from the collagen gels containing the MDA-231 cells with the empty vector. […] Conversely, no medium (−0.01±0.03 grams) was liberated from collagen gels containing MDA-231 cells producing the MMP-1 shRNA. The slight decrease in the volume of medium recovered may be due to evaporation of the medium during the incubation period.

MMP-1 protein = assay: Western blot of MMP-1 protein in culture medium; format: cell-based, human; conditions: empty vector MDA-231 cells in collagen gel; 50 U/mL; 24 hours
Experimental: Western Blot Analysis. MDA-231 cells were cultured in 1 mL serum-free DMEM/F12 medium in six-well plates in the presence or absence of a collagen gel, with or without aprotinin (50 U/mL; Sigma, St. Louis, Mo.). After 24 hours, medium was harvested, proteins precipitated with cold 10% trichloroacetic acid, and resuspended in 50 μL SDS loading buffer (PROMEGA®, Madison, Wis.). Following SDS-PAGE and transfer to a PVDF membrane (IMMOBILON™-P; MILLIPORE™, Bedford, Mass.), the membrane was incubated in a 5% milk, Tris-buffered saline solution with 0.1% TWEEN™ (milk TBST) for 1 hour. The membrane was probed with a MMP-1 polyclonal antibody (CHEMICON®, Temecula, Calif.) diluted 1:5000 in milk TBST overnight at 4° C. The membrane was washed three times with TBST, and a 1:2000 dilution of goat anti-rabbit horseradish peroxidase (HRP) conjugated antibody (CELL SIGNALING TECHNOLOGY®, Beverly, Mass.) in milk TBST was added for 60 minutes. The blot was washed three times with TBST, and HRP activity was detected with the WESTERN LIGHTNING® chemiluminescence reagent according to the manufacturer's instructions (PERKINELMER®, Boston, Mass.).
The three MMPs primarily responsible for degrading type 1 collagen are MMP-1, MMP-13, and the membrane bound MT1-MMP (Stamenkovic (2003) J. Pathol. 200:448-64). […]

MDA-231 cells = assay: Creation and subcloning of stable MDA-231 cell lines; format: cell-based; conditions: PSUPER-retro plasmid, G418 selection and subcloning
Experimental: Transfection of NIH/3T3 and MDA-231 Cells. NIH/3T3 cells were transiently transfected with LIPOFECTAMINE™ 2000 (INVITROGEN™, Carlsbad, Calif.) along with 0.5 μg peGFP, 0.5 μg pCMV-MMP-1, and 2 μg PSUPER™-MMP-1 shRNA or PSUPER™ with no insert. Transfection efficiency was monitored using eGFP signal. Total cellular RNA was harvested 48 hours after transfection and analyzed for MMP-1 mRNA by real-time RT-PCR. MDA-231 cells were stably transfected in triplicate with LIPOFECTAMINE™ 2000 (INVITROGEN™, Carlsbad, Calif.) and 2 μg of the PSUPER™.Retro.Neo.GFP plasmid containing the MMP-1 shRNA, the scrambled sequence or just the empty vector. Stable cell lines were selected by growth in the presence of 1 mg/mL G418 (STRATAGENE®, La Jolla, Calif.). Individual, stable cell lines were isolated with cloning disks according to the manufacturer's instructions (PGC Scientifics, Frederick, Md.).
Three groups of stable MDA-231 cell lines were created. One group contained only the PSUPER™-retro plasmid, a second group contained a PSUPER™-retro plasmid with the scrambled shRNA sequence, and the third contained a PSUPER™-retro plasmid with the MMP-1 shRNA oligonucleotide.

In the case of `CNC(=O)[C@H](Cc1c[nH]c2ccccc12)NC(=O)[C@@H](CC(=O)NO)CC(C)C` [ILOMASTAT®, ILOMASTAT, reference compound], the “medium liberated from collagen gels” value ([1]; 25 μM/gel inhibitor embedded) is reported as −0.1±0.08 grams.

With aprotinin [reference compound] the “medium liberated from collagen gels” value ([1]; 50 U/mL collagen embedded) was 0.01±0.1 grams and the “MMP-1 bands in medium / activation of proMMP-1 (western blot)” value (MMP-1 protein) was “only the higher molecular weight zymogen band”.

For “scrambled shRNA: Control shRNA with identical hairpin loop and linker, sequence not complementary to any human gene (SEQ ID NO:6) (AAGTGGAGGGACGTATGCA; the letters are possibly those of the target site)”, the “growth and survival of stably transfected cells” value (MDA-231 cells) was “did not grow well, and did not survive the subcloning procedures”.

Source: US7790697B2, “Compositions and methods for inhibiting the synthesis or expression of MMP-1” (Trustees of Dartmouth College, priority 2004, dated 2010)
